Results on three compounds are retold here after patent publication US20100137134A1, “Pesticidal Mixtures” (priority 2005, published 2010).

For test [1], the system named is vetch aphid (Megoura viciae). Description: Control of vetch aphid on broad bean leaf disks in 24-well microtiter plates (Test B.1). Type of test: in vivo. The procedure:
For evaluating control of vetch aphid (Megoura viciae) through contact or systemic means the test unit consisted of 24-well-microtiter plates containing broad bean leaf disks.
The compounds or mixtures were formulated using a solution containing 75% water and 25% DMSO (dimethylsulfoxid). Different concentrations of formulated compounds or mixtures were sprayed onto the leaf disks at 2.5 μl, using a custom built micro atomizer, at two replications.
(§1) For experimental mixtures in these tests identical volumes of both mixing partners at the desired concentrations respectively, were mixed together.
After application, the leaf disks were air-dried and 5-8 adult aphids placed on the leaf disks inside the microtiter plate wells. The aphids were then allowed to suck on the treated leaf disks and incubated at 23±1° C., 50±5% RH (room humidity) for 5 days. Aphid mortality and fecundity was then visually assessed.

For test [2], the system named is boll weevil (Anthonomus grandis). Description: Control of boll weevil, insect diet with eggs in 24-well microtiter plates (Test B.2). It is filed as in vivo. As to the method:
For evaluating control of boll weevil (Anthonomus grandis) the test unit consisted of 24-well-microtiter plates containing an insect diet and 20-30 A. grandis eggs.
The compounds or mixtures were formulated using a solution containing 75% water and 25% DMSO. Different concentrations of formulated compounds or mixtures were sprayed onto the […] at 20 μl, using a custom built micro atomizer, at two replications.
as §1
After application, microtiter plates were incubated at 23±1° C., 50±5% RH (room humidity) for 5 days. Egg and larval mortality was then visually assessed.

As for `Cc1cc(C#N)cc(C(N)=O)c1NC(=O)c1cc(Br)nn1-c1ncccc1Cl` [IA-26/T4], the “Average (Control %)” value in test [1] (test compound alone, 0.1 ppm (0 + 0.1), 5 days) is 0%; in test [2] (test compound alone, 0.3 ppm (0 + 0.3), 5 days), 0%.
For the compound `Cc1cc(C#N)cc(C(=O)NC2CC2)c1NC(=O)c1cc(Br)nn1-c1ncccc1Cl` [IA-326/T4], the “Average (Control %)” value in test [2] (test compound alone, 0.01 ppm (0 + 0.01), 5 days) stood at 0%; in test [2] (test compound alone, 0.03 ppm (0 + 0.03), 5 days), 0%.
Regarding `O=[N+]([O-])NC1=NCCN1Cc1ccc(Cl)nc1` [Imidacloprid, reference compound], the “Average (Control %)” value in test [1] (Imidacloprid alone, 1 ppm (1 + 0), aphid mortality and fecundity after 5 days) was 25%; in test [2] (Imidacloprid alone, 10 ppm (10 + 0), egg and larval mortality after 5 days) it was 0%.
